ChEMBL document CHEMBL1201862, “PubChem BioAssay data set” (2004)
Activity calls are given as the source filed them.

Tests used:
A549 = experiment: A549 cell toxicity, dose response, cytotoxicity control, plate reader, cherry-pick samples (AID 687028); format: functional, cell-based; conditions: Homo sapiens
Vero = experiment: Vero cell toxicity, dose response, cytotoxicity control, plate reader, cherry-pick samples (AID 687020); format: functional, cell-based; conditions: Chlorocebus sabaeus
[1] = HEK293 cell viability, dose response, counter-screen for EBV LMP1 inhibitor project, dry powder, set 2 (AID 624374); format: functional
[2] = molecular target: Tyrosine-protein phosphatase non-receptor type 5 (Homo sapiens, UniProt P54829); experiment: STEP phosphatase inhibitors, confirmation, biochemical, fluorescence intensity, uHTS hits (AID 602372); format: functional; conditions: read-out: IC50_Mean
Chain of Tyrosine-protein phosphatase non-receptor type 5 (P54829 whole entry): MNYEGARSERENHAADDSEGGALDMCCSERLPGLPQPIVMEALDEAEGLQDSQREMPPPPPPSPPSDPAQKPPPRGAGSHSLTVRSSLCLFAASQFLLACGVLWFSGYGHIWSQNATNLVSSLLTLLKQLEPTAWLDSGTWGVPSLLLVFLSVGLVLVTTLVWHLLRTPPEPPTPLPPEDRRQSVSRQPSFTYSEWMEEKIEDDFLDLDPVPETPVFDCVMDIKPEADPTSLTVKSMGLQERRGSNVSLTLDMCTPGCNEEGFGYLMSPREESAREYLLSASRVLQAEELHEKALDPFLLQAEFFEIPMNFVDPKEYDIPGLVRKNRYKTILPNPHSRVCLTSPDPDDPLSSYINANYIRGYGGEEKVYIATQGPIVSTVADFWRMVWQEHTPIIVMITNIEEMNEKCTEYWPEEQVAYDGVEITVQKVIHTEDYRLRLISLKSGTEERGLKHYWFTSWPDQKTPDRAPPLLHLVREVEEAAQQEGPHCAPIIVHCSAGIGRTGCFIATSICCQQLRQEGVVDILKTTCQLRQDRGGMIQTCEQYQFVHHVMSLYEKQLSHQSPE

[3] = molecular target: T1, Tyrosine-protein phosphatase non-receptor type 22 (Homo sapiens, UniProt Q9Y2R2); experiment: PTPN22 phosphatase inhibition, dose response, selectivity assay for STEP inhibitor project, biochemical (AID 624241); format: functional
T1 sequence (Q9Y2R2 whole entry): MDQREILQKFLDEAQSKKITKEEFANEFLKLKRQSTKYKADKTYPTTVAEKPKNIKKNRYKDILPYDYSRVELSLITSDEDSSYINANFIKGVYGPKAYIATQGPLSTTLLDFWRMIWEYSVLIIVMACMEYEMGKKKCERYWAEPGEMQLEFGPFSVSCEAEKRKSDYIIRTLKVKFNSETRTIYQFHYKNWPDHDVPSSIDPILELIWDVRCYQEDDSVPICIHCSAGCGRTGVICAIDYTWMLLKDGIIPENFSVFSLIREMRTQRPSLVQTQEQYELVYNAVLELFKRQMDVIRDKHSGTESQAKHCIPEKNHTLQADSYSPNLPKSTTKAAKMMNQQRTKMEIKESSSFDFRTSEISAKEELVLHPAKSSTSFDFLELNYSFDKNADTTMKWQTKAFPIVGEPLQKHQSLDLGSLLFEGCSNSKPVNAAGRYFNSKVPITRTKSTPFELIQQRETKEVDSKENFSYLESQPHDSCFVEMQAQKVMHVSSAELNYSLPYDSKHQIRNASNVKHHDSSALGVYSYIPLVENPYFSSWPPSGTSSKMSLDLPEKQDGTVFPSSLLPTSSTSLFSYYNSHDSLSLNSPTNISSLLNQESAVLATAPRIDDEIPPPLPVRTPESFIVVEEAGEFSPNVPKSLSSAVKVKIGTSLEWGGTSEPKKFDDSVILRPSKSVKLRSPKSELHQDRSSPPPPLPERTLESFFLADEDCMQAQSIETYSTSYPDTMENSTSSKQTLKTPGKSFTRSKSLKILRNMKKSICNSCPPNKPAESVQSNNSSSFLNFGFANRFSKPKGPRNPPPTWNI

[4] = molecular target: Dual specificity protein phosphatase 3 (Homo sapiens, UniProt P51452); experiment: VHR phosphatase inhibition, dose response, selectivity assay for STEP inhibitor project, biochemical (AID 602374); format: functional; conditions: read-out: IC50_Mean
Chain of Dual specificity protein phosphatase 3 (P51452 whole entry): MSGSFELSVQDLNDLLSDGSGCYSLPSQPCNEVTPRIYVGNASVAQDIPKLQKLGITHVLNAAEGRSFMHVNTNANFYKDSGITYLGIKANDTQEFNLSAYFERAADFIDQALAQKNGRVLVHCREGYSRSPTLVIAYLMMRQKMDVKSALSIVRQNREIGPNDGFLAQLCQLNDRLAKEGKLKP

[5] = molecular target: Tyrosine-protein phosphatase non-receptor type 11 (Homo sapiens, UniProt Q06124); experiment: SHP2 phosphatase inhibition, dose response, selectivity assay for STEP inhibitor project, biochemical (AID 602367); format: functional; conditions: read-out: IC50_Mean
Chain of Tyrosine-protein phosphatase non-receptor type 11 (Q06124 whole entry): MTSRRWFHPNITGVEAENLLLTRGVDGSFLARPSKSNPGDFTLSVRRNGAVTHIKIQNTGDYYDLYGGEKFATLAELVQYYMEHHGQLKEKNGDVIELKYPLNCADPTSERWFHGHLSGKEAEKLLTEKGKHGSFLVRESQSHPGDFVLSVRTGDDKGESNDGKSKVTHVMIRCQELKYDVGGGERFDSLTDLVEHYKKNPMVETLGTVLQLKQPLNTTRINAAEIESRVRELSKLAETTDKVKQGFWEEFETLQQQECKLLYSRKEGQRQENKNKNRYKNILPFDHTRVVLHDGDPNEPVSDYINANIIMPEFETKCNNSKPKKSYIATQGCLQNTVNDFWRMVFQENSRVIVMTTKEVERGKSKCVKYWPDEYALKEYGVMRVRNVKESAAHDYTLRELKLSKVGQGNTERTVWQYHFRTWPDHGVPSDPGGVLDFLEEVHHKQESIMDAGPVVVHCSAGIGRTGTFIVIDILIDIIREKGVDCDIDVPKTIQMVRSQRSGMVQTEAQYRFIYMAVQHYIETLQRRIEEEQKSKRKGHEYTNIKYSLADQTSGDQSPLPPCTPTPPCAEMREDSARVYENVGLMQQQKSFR

[6] = molecular target: Fructose-bisphosphate aldolase (Mycobacterium tuberculosis, UniProt P9WQA3); experiment: Fluorescence-based biochemical high throughput dose response assay for inhibitors of the fructose-bisphosphate aldolase (FBA) of M. tuberculosis.; format: functional
Chain of Fructose-bisphosphate aldolase (P9WQA3 whole entry): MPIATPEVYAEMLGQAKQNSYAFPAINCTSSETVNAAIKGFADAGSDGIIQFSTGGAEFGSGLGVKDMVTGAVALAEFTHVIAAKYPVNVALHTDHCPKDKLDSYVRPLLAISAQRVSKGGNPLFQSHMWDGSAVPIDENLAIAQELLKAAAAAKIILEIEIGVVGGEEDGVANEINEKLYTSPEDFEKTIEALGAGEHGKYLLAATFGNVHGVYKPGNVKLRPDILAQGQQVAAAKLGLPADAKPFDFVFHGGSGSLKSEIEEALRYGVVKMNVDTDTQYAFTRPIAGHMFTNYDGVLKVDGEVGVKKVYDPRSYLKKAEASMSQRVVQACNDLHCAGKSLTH

[7] = molecular target: SWI/SNF-related matrix-associated actin-dependent regulator of chromatin subfamily A member 2 (Homo sapiens, UniProt P51531); experiment: Luminescence-based cell-based high throughput dose response assay to identify activators of the function of SWI/SNF related, matrix associated, actin dependent regulator of chromatin, subfamily a, member 2 (SMARCA2, BRM).; format: functional
Chain of SWI/SNF-related matrix-associated actin-dependent regulator of chromatin subfamily A member 2 (P51531 whole entry): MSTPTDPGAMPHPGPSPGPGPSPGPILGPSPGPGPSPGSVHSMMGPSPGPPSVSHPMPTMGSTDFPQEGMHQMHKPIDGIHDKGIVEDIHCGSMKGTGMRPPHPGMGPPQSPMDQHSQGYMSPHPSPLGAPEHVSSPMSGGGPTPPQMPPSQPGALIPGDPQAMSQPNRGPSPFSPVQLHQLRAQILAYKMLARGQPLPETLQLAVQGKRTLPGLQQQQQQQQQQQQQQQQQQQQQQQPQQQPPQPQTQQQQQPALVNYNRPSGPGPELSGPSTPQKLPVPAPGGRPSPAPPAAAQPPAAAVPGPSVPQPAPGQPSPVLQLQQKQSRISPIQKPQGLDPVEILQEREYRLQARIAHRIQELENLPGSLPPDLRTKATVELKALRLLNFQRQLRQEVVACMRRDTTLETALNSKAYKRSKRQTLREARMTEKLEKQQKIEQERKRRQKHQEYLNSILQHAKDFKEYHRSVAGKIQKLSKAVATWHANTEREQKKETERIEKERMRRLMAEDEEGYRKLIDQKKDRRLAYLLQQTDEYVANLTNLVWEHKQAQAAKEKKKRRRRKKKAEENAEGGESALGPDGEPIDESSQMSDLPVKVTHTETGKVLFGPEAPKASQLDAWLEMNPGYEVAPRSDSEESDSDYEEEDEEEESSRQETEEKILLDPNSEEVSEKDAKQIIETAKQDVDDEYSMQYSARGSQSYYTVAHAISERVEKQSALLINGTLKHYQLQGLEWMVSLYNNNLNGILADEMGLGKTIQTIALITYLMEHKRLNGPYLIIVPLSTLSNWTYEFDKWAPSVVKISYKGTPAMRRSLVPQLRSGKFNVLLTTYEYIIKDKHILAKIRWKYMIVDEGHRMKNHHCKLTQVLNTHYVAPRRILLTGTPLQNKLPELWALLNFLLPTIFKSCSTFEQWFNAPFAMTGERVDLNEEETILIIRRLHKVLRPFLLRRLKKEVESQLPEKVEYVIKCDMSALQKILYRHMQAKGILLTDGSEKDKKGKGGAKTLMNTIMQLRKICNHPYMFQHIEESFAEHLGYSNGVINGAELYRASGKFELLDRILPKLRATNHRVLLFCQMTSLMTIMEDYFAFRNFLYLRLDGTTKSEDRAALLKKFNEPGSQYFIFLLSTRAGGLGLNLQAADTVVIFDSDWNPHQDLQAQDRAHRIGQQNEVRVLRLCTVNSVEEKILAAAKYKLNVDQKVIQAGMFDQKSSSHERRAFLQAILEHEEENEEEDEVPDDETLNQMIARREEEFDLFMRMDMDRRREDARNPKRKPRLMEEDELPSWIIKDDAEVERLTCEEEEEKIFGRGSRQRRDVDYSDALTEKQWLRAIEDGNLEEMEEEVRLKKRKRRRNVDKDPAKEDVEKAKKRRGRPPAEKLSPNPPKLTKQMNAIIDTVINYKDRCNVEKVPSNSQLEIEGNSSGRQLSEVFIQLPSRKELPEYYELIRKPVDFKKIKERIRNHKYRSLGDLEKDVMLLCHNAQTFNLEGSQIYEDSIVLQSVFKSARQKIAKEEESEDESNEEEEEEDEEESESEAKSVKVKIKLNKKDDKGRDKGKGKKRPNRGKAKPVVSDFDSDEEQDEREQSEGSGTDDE

[8] = Counterscreen for activators of the function of SWI/SNF related, matrix associated, actin dependent regulator of chromatin, subfamily a, member 2 (SMARCA2, BRM): Luminescence-based cell-based high throughput dose response assay to identify non-selective compounds using the VP16 reporter assay.; format: functional
Paired box protein Pax-8 = Paired box protein Pax-8 (Homo sapiens, UniProt Q06710); experiment: inhibitors of PAX8-driven TPO luciferase reporter, dose response, RMG-I cells, cherry-pick (AID 687027); format: functional, cell-based;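 also: luciferase reporter driven by Pax8 target thyroperoxidase promoter measured by SteadyGlo luminescence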
Chain of Paired box protein Pax-8 (Q06710 whole entry): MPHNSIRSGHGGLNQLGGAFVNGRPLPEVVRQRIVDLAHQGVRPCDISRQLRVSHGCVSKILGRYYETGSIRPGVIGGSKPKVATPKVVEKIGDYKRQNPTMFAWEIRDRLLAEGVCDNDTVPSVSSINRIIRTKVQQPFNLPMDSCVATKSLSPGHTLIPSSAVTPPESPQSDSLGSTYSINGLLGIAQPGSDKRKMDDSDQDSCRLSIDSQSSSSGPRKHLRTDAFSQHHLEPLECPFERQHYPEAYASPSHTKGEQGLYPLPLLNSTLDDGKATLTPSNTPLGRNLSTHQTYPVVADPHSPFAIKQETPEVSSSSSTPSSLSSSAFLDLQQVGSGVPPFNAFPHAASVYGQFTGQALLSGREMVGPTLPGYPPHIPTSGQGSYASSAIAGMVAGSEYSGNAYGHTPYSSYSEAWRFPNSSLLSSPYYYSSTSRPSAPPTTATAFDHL

[9] = LMP1-driven NF-kB reporter inhibition, dose response, cell-based, luciferase reporter, luminescence, dry powder, set 2 (AID 624376); format: functional
[10] = inhibitors of TNFa-stimulated NF-kB luciferase reporter, dose response, selectivity assay for EBV LMP1 NF-kB inhibitor project, HEK293 LMP1 reporter cells, dry powder, set 2 (AID 624369); format: functional
[11] = inhibitors of LMP1-driven NF-kB reporter, dose response, cell-based, EBV LMP1, luciferase, dry powder, set 2 (AID 624361); format: functional
[12] = off-target signal loss in HeLa-CEM21 co-culture – HeLa F-luc CTL cells, cherry-picked, counter-screen for HIV-1 Env fusion inhibitor project, dose response (AID 652040); format: functional, cell-based;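 also: potency for signal decrease marking cytotoxic or nonspecific inhibition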
[13] = HepG2 cell cytotoxicity, dose response, cytotoxicity control, plate reader, cherry-pick, antagonist series (AID 743416); format: functional, cell-based
[14] = inhibitors of clade B AD8 Env fusion, dose response, cell-based, cherry-pick (AID 652062); format: functional;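 also: luciferase signal from cell-cell fusion driven by HIV-1 clade B AD8 Env; potency is for inhibitors of fusion seen as a drop in luminescence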
[15] = inhibitors of HIV Env-driven cell fusion, dose response, cherry-pick (AID 652057); format: functional, cell-based
[16] = HEK293 cell cytotoxicity, dose response, cytotoxicity control, plate reader, cherry-picked samples (AID 743446); format: functional, cell-based
INS1 = experiment: beta cell apoptosis inhibitors, cytokine rescue, dose response, luminescence, retest (AID 449756); format: functional, cell-based; conditions: Rattus norvegicus;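 also: cell death triggered by IL-1 beta plus TNF-alpha plus IFN-gamma mixture; protective hits raise ATP signal compared with cytokine alone wells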
[17] = LGR2 antagonists, dose response, cell-based, HEK293, CRE-luciferase reporter, cherry pick, set 2 (AID 743343); format: functional;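 also: transfected cells were stimulated with diluted bursicon conditioned medium after compound addition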
[18] = ZM109 Env clade C HIV-1 fusion inhibitors, dose response, HeLa effector, CEM target cells, luciferase, cherry-pick (AID 652058); format: functional, cell-based
[19] = MC4R antagonists, dose response, counter-screen for LGR2 antagonist project, cell-based, plate reader, cherry pick (AID 743444); format: functional;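 also: transfected HEK 293 cells stimulated with alpha-MSH peptide; potency of inhibitors of the alpha-MSH evoked signal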
[20] = cytotoxicity in HEK-293T cells, dose response, cytotoxicity control for BCR NF-kB inhibitor project, luminescence, B-cell screen hits (AID 489021); format: functional, cell-based;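 also: HEK-293T cells carrying an NF-kB luciferase reporter; cells exposed to compound for about 14 hours before viability readout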
[21] = CEM21 lymphoblast cell cytotoxicity, dose response, cytotoxicity control for viral fusion inhibitor project, CellTiter-Glo luminescence, cherry-picked (AID 652042); format: functional, cell-based;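 also: potency for signal decrease meaning cytotoxicity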
[22] = A549 cell cytotoxicity, dose response, cytotoxicity control, plate reader, cherry-pick, antagonist series (AID 743412); format: functional, cell-based
Beta-lactamase [23] = molecular target: Beta-lactamase (Salmonella choleraesuis (strain SC-B67), UniProt Q5J463); experiment: Epi-absorbance-based counterscreen for selective VIM-2 inhibitors: dose response biochemical high throughput screening assay to identify inhibitors of TEM-1 serine-beta-lactamase.
Beta-lactamase [24] = molecular target: T2, Beta-lactamase (Pseudomonas aeruginosa, UniProt Q79MP6); experiment: IMP-1 metallo-beta-lactamase inhibitors, dose response, selectivity assay for VIM-2 inhibitor project, biochemical, epi-absorbance (AID 1920)
T2 sequence (Q79MP6 whole entry): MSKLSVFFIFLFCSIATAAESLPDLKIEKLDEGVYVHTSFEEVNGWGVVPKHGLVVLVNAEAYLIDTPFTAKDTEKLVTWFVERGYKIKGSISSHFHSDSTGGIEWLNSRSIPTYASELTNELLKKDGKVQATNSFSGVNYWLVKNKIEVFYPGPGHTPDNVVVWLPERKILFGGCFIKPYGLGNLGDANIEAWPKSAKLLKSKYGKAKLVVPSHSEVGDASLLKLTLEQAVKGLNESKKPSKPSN

Beta-lactamase [25] = molecular target: T2, Beta-lactamase; experiment: […] counterscreen for selective VIM-2 inhibitors: dose response biochemical high throughput screening assay to identify inhibitors of IMP-1 metallo-beta-lactamase.
[26] = molecular target: Potassium channel subfamily K member 9 (Homo sapiens, UniProt Q9NPC2); experiment: TASK3 (KCNK9) channel inhibitors, thallium flux, SAR follow-up, selectivity assay for TASK1 inhibitor project, cell-based, FluxOR thallium flux, concentration-response (AID 652211); format: functional;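 also: potency is for inhibitors of the channel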
Chain of Potassium channel subfamily K member 9 (Q9NPC2 whole entry): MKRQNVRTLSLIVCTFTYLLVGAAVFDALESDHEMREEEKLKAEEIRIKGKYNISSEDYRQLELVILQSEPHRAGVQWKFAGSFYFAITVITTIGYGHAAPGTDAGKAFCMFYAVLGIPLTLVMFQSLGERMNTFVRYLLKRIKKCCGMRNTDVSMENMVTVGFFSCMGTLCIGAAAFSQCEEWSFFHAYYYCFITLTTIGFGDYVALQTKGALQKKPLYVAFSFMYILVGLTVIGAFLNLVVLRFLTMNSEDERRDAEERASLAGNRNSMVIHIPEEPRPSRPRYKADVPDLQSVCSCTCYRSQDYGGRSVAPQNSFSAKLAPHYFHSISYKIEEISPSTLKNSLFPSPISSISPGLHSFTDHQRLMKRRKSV

[27] = molecular target: Glucose-6-phosphate 1-dehydrogenase (Homo sapiens, UniProt P11413); experiment: human G6PD enzyme inhibitors, dose response, selectivity assay for P. falciparum G6PD inhibitor project, biochemical, fluorescence (AID 504792); format: functional
Chain of Glucose-6-phosphate 1-dehydrogenase (P11413 whole entry): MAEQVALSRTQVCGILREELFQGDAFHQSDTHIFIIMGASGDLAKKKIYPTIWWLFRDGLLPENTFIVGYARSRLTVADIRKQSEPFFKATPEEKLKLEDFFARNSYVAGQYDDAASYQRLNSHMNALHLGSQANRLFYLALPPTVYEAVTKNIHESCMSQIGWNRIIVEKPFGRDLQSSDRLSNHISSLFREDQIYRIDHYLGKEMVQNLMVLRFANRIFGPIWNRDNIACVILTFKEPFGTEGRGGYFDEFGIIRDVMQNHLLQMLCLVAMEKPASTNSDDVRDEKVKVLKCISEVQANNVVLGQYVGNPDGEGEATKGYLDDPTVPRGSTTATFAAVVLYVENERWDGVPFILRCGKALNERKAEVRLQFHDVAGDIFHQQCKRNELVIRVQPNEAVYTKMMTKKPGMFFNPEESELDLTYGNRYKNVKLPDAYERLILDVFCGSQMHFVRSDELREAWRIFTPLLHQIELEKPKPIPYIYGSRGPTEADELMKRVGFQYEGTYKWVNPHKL

[28] = HeLa cell cytotoxicity, dose response, cytotoxicity control for MgcRacGAP inhibitor project (AID 624300); format: functional

CC1(C(=O)NCc2cccs2)Cc2c(-c3cccc(C(F)(F)F)c3)ccnc2O1 (configuration not stated)
AC50 (A549): 17.6 µM (active)

CCCCC[C@H]1CN(CCc2ccccc2)C(=O)[C@@H]1CC(=O)NCc1ccc(OC)cc1
AC50 (Vero): 33.9 µM (active)

C[C@@H]1CN([C@@H](C)CO)C(=O)c2c(c3ccccc3n2C)-c2ccccc2CO[C@H]1CN(C)C(=O)Nc1ccc(F)cc1
AbsAC35 [1]: 204.77 µM

SC1=NC2=C(CCCC2=C2SCCS2)C(c2ccccc2)N1 (configuration not stated)
IC50 [2]: 22.6 µM (inactive)
IC50 [3]: > 100 µM (inactive)
IC50 [4]: 1.23 µM (active)
IC50 [5]: 5.27 µM (active)

CC(=O)NN1C(=O)c2ccccc2NC1c1ccccn1 (configuration not stated)
IC50 [6]: 3.49 µM (active)

CN(C)c1ncnc2c1nnn2C1OC(CO)C(O)C1O (configuration not stated)
EC50 [7]: > 91.2 µM (inactive)
EC50 [8]: > 91.2 µM (inactive)
AC50 (Paired box protein Pax-8): < 0.26 µM (active)

CC(C)NC(=O)N1[C@H](CO)[C@H](c2ccc(C#CC3CCCCC3)cc2)[C@@H]1C#N
AbsAC35 [9]: 62.28 µM
AbsAC35 [10]: 202.7 µM
AbsAC35 [11]: 53.56 µM

CC(C)CN(C(=O)COC(=O)C12CC3CC(CC(C3)C1)C2)c1c(N)n(Cc2ccccc2)c(=O)[nH]c1=O
AC50 [12]: 17 µM (active)
AC50 [13]: 13.7 µM (active)
AC50 [14]: 18.3 µM (active)
AC50 [15]: 9.69 µM (active)
AC50 [16]: 16.6 µM (active)
AC50 (INS1): 3.62 µM (active)
AC50 [17]: 43.8 µM (active)
AC50 [18]: 11.4 µM (active)
AC50 [19]: 30.2 µM (active)
IC50 [20]: > 80 µM (inactive)
AC50 [21]: 13.1 µM (active)
AC50 [22]: 8.64 µM (active)

O=C(CSc1nnc(NC(=O)C2CC2)s1)NCc1ccccc1Cl
IC50 (Beta-lactamase [23]): > 59.6 µM (inactive)
IC50 (Beta-lactamase [24]): > 59.6 µM (inactive)
IC50 (Beta-lactamase [25]): > 59.6 µM (inactive)

Cc1cccc(C(=O)Nc2cccc(NC(=O)c3ccccc3Cl)c2)c1
IC50 [26]: 19.8 µM (active)

O=[N+]([O-])c1cnc(Sc2ccncn2)c([N+](=O)[O-])c1
IC50 [27]: > 80 µM (inactive)
CC50 [28]: 34.1 µM (active)
